Source: patent US11034725B2, “Compositions and methods for treating cardiovascular disease” (Genentech, Inc., priority 2016, dated 2021)
Entries after “also recorded” stand apart in the source; their conditions may differ. Read-outs that look alike come from different tables or passages of the source. Bridge positions count the residues as written; N and C are the ends. Square brackets hold non-standard residues; d marks the D form. Peptide text beside a SMILES is read from it. hArg = N=C(N)NCCCC[C@H](N)C(=O)O

Legend:
[1] = molecular target: T1, PCSK9Δhelix (Homo sapiens, UniProt Q8NBP7); assay: PCSK9Δhelix/Ab20 TR-FRET binding assay
T1 construct: Human PCSK9 construct M1-Q692 with an engineered TEV site (residue deletion Y166, R167); made in house; host or cells: CHO

[2] = molecular target: T1, PCSK9Δhelix; assay: Phage competition ELISA; conditions: binding of peptide-displaying phage to PCSK9Δhelix
Experimental: The sequences of selected clones were fused to the N-terminus of M13 major coat protein (p8) using Kunkel mutagenesis method (Kunkel et al., Methods Enzymol 154, 367-82). The resulting construct was transformed to E. Coli. XL1 blue, single colony was grown in 1 mL 2YT supplemented with 50 μg/mL carbenicillin, 10 μg/mL Tetracycline and M13 KO7 helper phage at 37° C. for 2 h, Kanamycin was added to final concentration of 25 μg/mL, growth was continued at 37° C. for 6 h. The culture was transferred to 30 mL 2YT supplemented with 50 μg/mL carbenicillin and 25 μg/mL kanamycin and grown at 37° C. overnight. The next day, the phage was harvested and purified using the standard protocol (Tonikian et al. Nat Protoc. 2007; 2(6):1368-86). […] The bound phage was detected with anti-M13-HRP and the ELISA signal was read at OD450 nm. […] Sub-saturating phage concentration that gave 80% of maximum binding signal was determined by the binding curve.
IC50 measurements were performed by mixing a fixed sub-saturating concentration of peptide-displaying phage with a serial dilution of synthetic peptides in PBT buffer. […] The plates were then washed 10 times with PBT buffer and the bound phage was detected by anti-M13-HRP. […]

[3] = molecular target: T2, PCSK9 (Homo sapiens, UniProt Q8NBP7); assay: Phage competition ELISA; format: binding; conditions: binding of peptide-displaying phage to PCSK9
Summary of the method: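 Fixed sub-saturating peptide-phage concentration (80% of max binding signal) mixed with serially diluted synthetic peptides in PBT, added to plates bearing immobilized biotinylated PCSK9 or PCSK9Δhelix, 1 h at room temperature. Bound phage detected with anti-M13-HRP at OD450 nm; IC50 from curve fit, 3 independent repeats.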

[4] = tested on: His-EGF(A)-Fc; assay: His-EGF(A)-Fc TR-FRET counterscreen
[5] = molecular target: T2, PCSK9; assay: PCSK9/EGF(A) TR-FRET binding assay
[6] = molecular target: T2, PCSK9; assay: Cell surface LDLR assay with HepG2 cells; format: cell-based; conditions: for EC50 / surface LDLR levels restored: HepG2 cells; for EC50: 15 μg/mL PCSK9, 4 h, FACS; for surface LDLR levels restored: maximal restoration, percent of control without PCSK9
Experimental: HepG2 cells (ATCC; Manassas, Va.) were seeded into 48 well plates (Corning; Corning, N.Y.) at 1×10^5 cells per well in high glucose medium (DMEM, Gibco; Carlsbad, Calif.) containing 2 mM glutamine (Sigma), penicillin/streptomycin (Gibco) and 10% FBS (Sigma; St. Louis, Mo.) and incubated overnight. Then the medium was changed to DMEM containing 10% lipoprotein deficient serum (LPDS, Sigma). After 24 h, 15 μg/mL PCSK9 was incubated with peptides or Fab33 for 30 min, added to the cells and incubated at 37° C. for 4 h. Cells were rinsed with PBS and detached using Cell Dissociation Buffer in PBS (Gibco). After centrifugation, the resuspended cells were incubated with 1:20 anti LDLR antibody (Progen Biotechnik; Heidelberg, Germany) on ice for 10 min. The samples were then washed with PBS and incubated with 1:200 diluted goat anti mouse IgG (H+L) Alexa Fluor 488 (Invitrogen; Carlsbad, Calif.) on ice for 5 min. After two PBS washes, cells were re suspended in PBS containing 2.5 μg/mL of propidium iodide and analyzed on a dual laser flow cytometer (FACScan, Becton Dickinson; Franklin Lakes, N.J.). Relative fluorescence units (RFUs) were used to quantify LDLR expression levels on the HepG2 cell surface. Cell surface LDLR levels were expressed as percent of LDLR levels measured in the absence of PCSK9 (=control).
The effect of Compound 229 on PCSK9-mediated LDL receptor degradation was measured in a HepG2 cell assay as previously described (Zhang et al., J Biol Chem. 2014 Jan. 10; 289(2):942-55). Peptides at various concentrations were preincubated with 15 μg/mL PCSK9 in the presence of 0.5% DMSO for 30 min prior to the addition to cells. After a 4 h incubation, the cells were processed for measurements of LDL receptor surface levels by flow cytometry as described (Zhang et al., J Biol Chem. 2014 Jan. 10; 289(2):942-55) (FIG. 37).

[7] = molecular target: T1, PCSK9Δhelix; assay: Surface plasmon resonance biosensor-based affinity analysis (Example 4); format: binding; conditions: for Kd: Table 7, Target PCSK9Δhelix, SPR at 20° C., read-out: Kd
[8] = molecular target: T2, PCSK9; assay: SPR affinity measurements of peptide binding (Example 8); conditions: Example 8, with standard error; read-out: KD, binding affinity to PCSK9 in SPR experiments
[9] = molecular target: T2, PCSK9; assay: PCSK9/LDLR-Fc TR-FRET assay (LDLR assay); format: binding; conditions: for IC50: Table 11, LDLR-Fc, average ±S.D. of three experiments
Experimental: In black 1536-well assay plates (MaKO, Aurora® Microplates, Whitefish, Mont.), 40 nL of peptide in DMSO were preincubated with 2 μL His-tagged PCSK9 plus anti-His-allophycocyanin in assay buffer (50 mM Tris-HCl, pH 7.5, 150 mM NaCl, 2 mM CaCl2, 0.01% Tween®-20, 0.1% bovine gamma globulins, and protease inhibitor cocktail) for 30 min. Then 2 μL of Fc-tagged ligand and anti-Fc-europium in assay buffer were added and allowed to incubate for 2 h. The PCSK9 and ligand conditions for each assay are as follows: 10 nM C-terminal (His)8-tagged PCSK9 (“(His)8” disclosed as SEQ ID NO: 304) and 12 nM EGF(A)-Fc for the EGF(A) assay, 10 nM C-terminal (His)8-tagged PCSK9 (“(His)8” disclosed as SEQ ID NO: 304) and 2.5 nM LDLR-Fc for the LDLR assay, 1.25 nM C-terminal (His)8-tagged PCSK9Δhelix (“(His)8” disclosed as SEQ ID NO: 304) and 0.75 nM Ab20 for the Ab20 assay, and 2 nM His-EGF(A)-Fc alone for the counterscreen. In all assays, anti-His-allophycocyanin and anti-Fc-europium were used at 20 nM and 2 nM, respectively. Fluorescence was measured with excitation at 340 nm and emission at 671 nm and 618 nm. The TR-FRET ratio was calculated as fluorescence at 671 nm/fluorescence at 618 nm. The ratios were normalized to controls and plotted against peptide concentration to determine IC50 values (Screener Analyzer, Genedata, Basel, CH). The peptides were evaluated in three separate experiments per assay with 10-point titrations and n=2 per concentration. The values presented are the average ±S.D. of three independent experiments.

[10] = TR-FRET, Example 7, read-out: PCSK9Δhelix/Ab20 IC50
[11] = TR-FRET, Table 8E, additional compounds, read-out: PCSK9Δhelix/Ab20 IC50
[12] = Table 11, average ±S.D. of three experiments, read-out: Ab20 IC50
[13] = TR-FRET counterscreen, Table 8E, additional compounds
[14] = TR-FRET, Table 8E, additional compounds, read-out: PCSK9/EGF(A) IC50
[15] = Table 11, average ±S.D. of three experiments, read-out: EGF(A) IC50

Molecule	inhibition in the PCSK9Δhelix/Ab20 binding assay [1]	IC50 [1, 10] [nM]	IC50 in phage competition ELISA [2]	IC50 ([4]; counterscreen, Example 7) [nM]	inhibition in the PCSK9/EGF(A) binding assay [5]	EC50 [6] [nM]	surface LDLR levels restored [6] [%]	Kd range for PCSK9Δhelix binding [7]	Kd [7] [nM]	Kd [8] [nM]	IC50 [1, 11] [nM]	IC50 [1, 12] [nM]	IC50 [4, 13] [nM]	IC50 [5, 14] [nM]	IC50 [5, 15] [nM]	inhibition of LDLR-Fc binding to PCSK9 [9]	IC50 [9] [nM]	other results
CC[C@H](C)[C@@H]1NC(=O)[C@H](CCCNC(=N)N)NC(=O)[C@H](CCC(N)=O)NC(=O)[C@H](CC(C)C)NC(=O)[C@H](CC(N)=O)NC(=O)[C@H](Cc2c[nH]c3ccccc23)NC(=O)[C@@H]2CCCN2C(=O)[C@H](CC(C)C)NC(=O)[C@H](CCCNC(=N)N)NC(=O)[C@@H](NC(=O)CNC(=O)[C@H](CO)NC(=O)CNC(=O)[C@@H](NC(=O)[C@H](Cc2c[nH]c3ccccc23)NC(=O)[C@H](CC(=O)O)NC(=O)[C@H](CC(C)C)NC(=O)[C@H](Cc2ccc(O)cc2)NC(=O)[C@H](CCC(=O)O)NC(=O)[C@H](CCC(=O)O)NC(=O)[C@H](Cc2c[nH]c3ccccc23)NC(=O)[C@H](CO)NC(=O)[C@@H](NC(=O)[C@H](Cc2ccccc2)NC(=O)[C@@H](NC(=O)[C@@H](NC(C)=O)[C@@H](C)O)C(C)C)[C@@H](C)O)C(C)C)CSSC[C@@H](C(N)=O)NC(=O)[C@@H]2CCCN2C(=O)[C@H](CC(C)C)NC(=O)CNC1=O [Compound 19] (Ac-TVFTSWEEYLDWVGSGCRLPWNLQRIGLPC-NH2; disulfide 17-30)	potent inhibitors	2	single digit nanomolar range	> 50000	potent inhibitor	~500	100	sub-nanomolar range	0.0989									IC50 in phage competition ELISA ([3]; listed as Pep2-8_K9gvpep4): low nanomolar range; also recorded: single digit nanomolar range; IC50 ([5]; TR-FRET, Example 7, read-out: PCSK9/EGF(A) IC50): 9 nM
CC[C@H](C)[C@H](NC(=O)[C@H](CCCCNC(=N)N)NC(=O)[C@@H](NC(=O)[C@H](CC(C)C)NC(=O)[C@H](CC(N)=O)NC(=O)[C@H](Cc1c[nH]c2ccccc12)NC(=O)CNC(=O)[C@@H]1CCCN1C(=O)[C@H](Cc1ccccc1)NC(=O)[C@H](C)NC(=O)[C@H](Cc1ccccc1)NC(=O)[C@H](CO)NC(C)=O)C(C)C)C(=O)NCC(=O)N[C@@H](CC(C)C)C(=O)N[C@@H](CC(C)C)C(=O)N[C@@H](CCCNC(=N)N)C(N)=O [Compound 228] (Ac-SFAFPGWNLV[hArg]IGLLR-NH2)					inhibited					2800 ± 50	13000	1370 ± 120	≥ 50000	1300	13200 ± 800	inhibited	30400 ± 1100	
CC[C@H](C)[C@H](NC(=O)[C@H](CCCCNC(=N)N)NC(=O)[C@@H](NC(=O)[C@H](CC(C)C)NC(=O)[C@H](CC(N)=O)NC(=O)[C@H](Cc1c[nH]c2ccccc12)NC(=O)CNC(=O)[C@@H]1CCCN1C(=O)[C@H](Cc1ccccc1)NC(=O)[C@H](CO)NC(=O)[C@H](CCC(=O)O)NC(=O)[C@H](CCSC)NC(C)=O)C(C)C)C(=O)NCC(=O)N[C@@H](CC(C)C)C(=O)N[C@@H](CC(C)C)C(=O)N[C@@H](CCCNC(=N)N)C(N)=O [Compound 229] (Ac-MESFPGWNLV[hArg]IGLLR-NH2)	inhibition				inhibited; also recorded: inhibition		≤ 70			940 ± 10	8100	840 ± 80	≥ 50000	810	8300 ± 100	inhibited; also recorded: inhibition	25000 ± 800	improvement of affinity to PCSK9Δhelix versus Compound 192 ([1]; Table 11): more than 6 fold; response in the His-EGF(A)-Fc counterscreen [4]: without interference; inhibition of PCSK9-mediated LDLR degradation in HepG2 cells [6]: concentration-dependent manner; also recorded: concentration-dependent inhibition
Ac-TVFTSWEEYLDWVGSGDLMPWNLVRIGLLR-NH2 [Compound 20]	low nanomolar concentrations	1	single digit nanomolar range	> 50000	significantly improved relative to Pep2-8	1000 to 5000	100	sub-nanomolar range	0.366									IC50 in phage competition ELISA ([3]; listed as Pep2-8_K9gvpep7): low nanomolar range; also recorded: single digit nanomolar range
